In ChEMBL document CHEMBL1134837, “A conformational and structure-activity relationship study of cytotoxic 3,5-bis(arylidene)-4-piperidones and related N-acryloyl analogues” (J Med Chem, 2001):
Several values for one entry are separate records, joined by “and”; a condition that tells them apart may be missing. Equal entries are not always repeated.

Columns and labels:
L1210 [1] = experiment: Inhibitory effect on the biosyntheses of RNA in murine L1210 cells.; assay type: functional, cell-based; conditions: Mus musculus
CCRF-CEM = experiment: Cytotoxicity against CEM T-lymphocytes.; assay type: functional, cell-based; conditions: Homo sapiens
[2] = Average potency of all four cell lines (P388 cell line, L1210 cell line, Molt 4/C8 cell line, CEM T-lymphocytes); assay type: functional; set-up: unit not given here
[3] = Cytotoxicity against human Molt 4/C8 cells.; assay type: functional, cell-based; conditions: Molt4/C8
L1210 [4] = experiment: Inhibitory effect on the biosyntheses of protein in murine L1210 cells.; assay type: functional, cell-based; conditions: Mus musculus
P388 = experiment: Cytotoxicity against murine P388 cells.; assay type: functional, cell-based; conditions: Mus musculus
L1210 [5] = experiment: Cytotoxicity against murine L1210 cells.; assay type: functional, cell-based; conditions: Mus musculus
L1210 [6] = experiment: Inhibitory effect on the biosyntheses of DNA in murine L1210 cells.; assay type: functional, cell-based; conditions: Mus musculus
Jurkat [7] = experiment: (§1) Cytotoxicity against human Jurkat T cells.; assay type: functional
[8] = The apoptotic index [(number of human jurkat cells with apoptotic nuclei/number of cells counted) 100]; assay type: functional
Jurkat [9] = experiment: Inhibitory effect on the biosyntheses of RNA using human Jurkat T cells.; assay type: functional
Jurkat [10] = experiment: as §1; assay type: functional, cell-based
Jurkat [11] = experiment: Inhibitory effect on the biosyntheses of protein using human Jurkat T cells.; assay type: functional

SMILES | IC50 (L1210 [1]) [nM] | IC50 (CCRF-CEM) [nM] | AP [2] | IC50 [3] [nM] | IC50 (L1210 [4]) [nM] | IC50 (P388) [nM] | IC50 (L1210 [5]) [nM] | IC50 (L1210 [6]) [nM] | IC80 (Jurkat [7]) [nM] | Apoptotic index [8] | Inhibition (Jurkat [9]) | IC50 (Jurkat [10]) [nM] | Inhibition (Jurkat [11]) [%]
O=C1/C(=C/c2ccc(N3CC3)cc2)CNC/C1=C\c1ccc(N2CC2)cc1 | 336000 | 162000 | 157 | 226000 | 320000 | 640 | 240000 | > 500000 |  |  |  |  | 
COc1ccc(/C=C2\CNC/C(=C\c3ccc(OC)cc3)C2=O)cc1 |  |  | 174 |  |  | 1540 |  |  |  |  |  |  | 
C=CC(=O)N1C/C(=C\c2ccc(N3CC3)cc2)C(=O)/C(=C/c2ccc(N3CC3)cc2)C1 |  | > 500000 | >353 | 369000 |  | 43300 | > 500000 |  |  |  |  |  | 
C=CC(=O)N1C/C(=C\c2ccc(Cl)c(Cl)c2)C(=O)/C(=C/c2ccc(Cl)c(Cl)c2)C1 |  | 1080 | 0.92 | 1040 |  | 50 | 1520 |  | 940 | 63.5 | 67.6% | 580 | 58.1
C=CC(=O)N1C/C(=C\c2ccc(Cl)cc2)C(=O)/C(=C/c2ccc(Cl)cc2)C1 |  | 490 | 0.76 | 440 |  | 150 | 1960 |  |  |  |  |  | 
O=C1/C(=C/c2ccccc2)CNC/C1=C\c1ccccc1 |  |  | 3.03 |  |  | 770 |  |  |  |  |  |  | 
O=C1/C(=C/c2ccc(Cl)c(Cl)c2)CNC/C1=C\c1ccc(Cl)c(Cl)c1 |  | 20800 | 47.8 | 40200 |  | 1010 | 129000 |  | 4830 | 48.3 | 26.4% and 31.1% | 3090 | 
C=CC(=O)N1C/C(=C\c2ccc(OC)cc2)C(=O)/C(=C/c2ccc(OC)cc2)C1 |  | 2670 | 4.36 | 2270 |  | 680 | 11800 |  |  |  |  |  | 
C=CC(=O)N1C/C(=C\c2ccccc2)C(=O)/C(=C/c2ccccc2)C1 |  | 1480 | 3.3 | 1420 |  | 500 | 8690 |  |  |  |  |  | 
C=CC(=O)N1C/C(=C\c2ccc([N+](=O)[O-])cc2)C(=O)/C(=C/c2ccc([N+](=O)[O-])cc2)C1 | 5730 | 260 | 0.22 | 150 | 3210 | 50 | 420 | 2770 |  |  |  |  | 
O=C1/C(=C/c2ccc(Cl)cc2)CNC/C1=C\c1ccc(Cl)cc1 |  |  | 16.1 |  |  | 740 |  |  |  |  |  |  | 
O=C1/C(=C/c2ccc([N+](=O)[O-])cc2)CNC/C1=C\c1ccc([N+](=O)[O-])cc1 | 276000 | 4470 | 11.5 | 8280 | 214000 | 200 | 32900 | 228000 |  |  |  |  | 
C=CC(=O)N1C/C(=C\c2ccc(F)cc2)C(=O)/C(=C/c2ccc(F)cc2)C1 |  | 800 | 1.34 | 410 |  | 270 | 3890 |  |  |  |  |  | 
O=C1/C(=C/c2ccc(F)cc2)CNC/C1=C\c1ccc(F)cc1 |  |  | 11 |  |  | 600 |  |  |  |  |  |  | 
N[C@@H](Cc1ccc(N(CCCl)CCCl)cc1)C(=O)O | > 100000 |  | 2.02 |  | 94600 |  |  | > 100000 |  |  | 85.1% |  | 17.3
